Reference: ChEMBL document CHEMBL3045416, “Synthesis and biological evaluation of new curcumin derivatives as antioxidant and antitumor agents” (Med Chem Res, 2013)

Tests used:
[1] = Antioxidant activity assessed as inhibition of ABTS radical production at 1 mg/ml; assay type: functional
[2] = Induction of Homo sapiens (human) RBC haemolysis at 2 ug/ml by spectrophotometric anlaysis; assay type: cell-based, Erythrocyte; details: red blood cells, read-out: Activity
HepG2 = test: Cytotoxicity against Homo sapiens (human) HepG2 cells assessed as cell viability at 20 ug/ml by trypan blue assay; assay type: functional; details: read-out: Activity
Vero = test: Cytotoxicity against Chlorocebus aethiops (African green monkey) Vero cells assessed as cell viability at 20 ug/ml by trypan blue assay; assay type: functional; details: Chlorocebus sabaeus, read-out: Activity
WI-38 = test: Cytotoxicity against Homo sapiens (human) WI38 cells assessed as cell viability at 20 ug/ml by trypan blue assay; assay type: functional; details: read-out: Activity
MCF7 = test: Cytotoxicity against Homo sapiens (human) MCF7 cells assessed as cell viability at 20 ug/ml by trypan blue assay; assay type: functional; details: read-out: Activity
[3] = Antioxidant activity assessed as inhibition of ABTS radical production at 2 mM; assay type: functional
[4] = Antihaemolysis activity in Homo sapiens (human) RBC assessed as inhibition of ABTS-induced haemolysis at 20 ug/ml incubated for 30 min prior to ABTS-challenge by spectrophotometric analysis; assay type: functional; details: Erythrocyte

COc1ccc(/C=C2\CCC/C(=C\c3ccc(OC)cc3)C2=O)cc1
inhibition [1]: 1.35%
hemolysis at 2 ug/ml [2]: 100%

CCOc1ccc(/C=C/C(=O)C(CC)(CC)C(=O)/C=C/c2ccc(OCC)c(OC)c2)cc1OC
viability at 20 µg/mL (HepG2): 78%
viability at 20 µg/mL (Vero): 88%
viability at 20 µg/mL (WI-38): 82%
viability at 20 µg/mL (MCF7): 94%
inhibition [1]: 26.4%

CC(C)(C(=O)/C=C/c1ccc(Cl)cc1)C(=O)/C=C/c1ccc(Cl)cc1
inhibition [1]: 2.32%
hemolysis at 2 ug/ml [2]: 100%

N#CC1=C(N)OC2=C(CCC/C2=C\c2ccccc2)C1c1ccccc1 (configuration not stated)
inhibition [1]: 0.19%

COc1ccc(/C=C/C(=O)C(C)(C)C(=O)/C=C/c2ccc(OC)c(OC)c2)cc1OC
viability at 20 µg/mL (HepG2): 78%
viability at 20 µg/mL (Vero): 89%
viability at 20 µg/mL (WI-38): 75%
viability at 20 µg/mL (MCF7): 87%
inhibition [1]: 12.6%
hemolysis at 2 ug/ml [2]: 100%

COc1cc(/C=C2\CCC/C(=C\c3ccc(O)c(OC)c3)C2=O)ccc1O [CYCLOVALONE]
viability at 20 µg/mL (HepG2): 28%
viability at 20 µg/mL (Vero): 69%
viability at 20 µg/mL (WI-38): 58%
viability at 20 µg/mL (MCF7): 32%
inhibition [1]: 74.2%

Clc1ccc(/C=C2\CCCC3C2=NN(c2ccc(Br)cc2)C3c2ccc(Cl)cc2)cc1 (configuration not stated)
inhibition [1]: 2.9%
hemolysis at 2 ug/ml [2]: 100%

COc1ccc(/C=C2\CCCCC3C2=NN(c2ccc(Br)cc2)C3c2ccc(OC)cc2)cc1 (configuration not stated)
hemolysis at 2 ug/ml [2]: 100%

COc1cc(/C=C/C(=O)C(C)(C)C(=O)/C=C/c2ccc(O)c(OC)c2)ccc1O
viability at 20 µg/mL (HepG2): 47%
viability at 20 µg/mL (Vero): 82%
viability at 20 µg/mL (WI-38): 78%
viability at 20 µg/mL (MCF7): 55%
inhibition [1]: 52.9%

N#CC1=C(N)OC2=C(CCC/C2=C\c2ccc(Cl)cc2)C1c1ccc(Cl)cc1 (configuration not stated)
inhibition [1]: 1.55%

O=C1/C(=C/c2ccccc2)CCC/C1=C\c1ccccc1
inhibition [1]: 1.93%

Brc1ccc(N2N=C3/C(=C/c4ccccc4)CCCC3C2c2ccccc2)cc1 (configuration not stated)
inhibition [1]: 1.74%
hemolysis at 2 ug/ml [2]: 100%

O=C1/C(=C/c2ccc(Cl)cc2)CCC/C1=C\c1ccc(Cl)cc1
inhibition [1]: 0.58%
hemolysis at 2 ug/ml [2]: 100%

O=C1O[C@H]([C@@H](O)CO)C(O)=C1O [ASCORBIC ACID]
inhibition [3]: 80.8%
inhibition at 20 µg/mL [4]: 17.6%

N#CC1=C(N)OC2=C(CCC/C2=C\c2ccc(O)cc2)C1c1ccc(O)cc1 (configuration not stated)
viability at 20 µg/mL (HepG2): 78%
viability at 20 µg/mL (Vero): 83%
viability at 20 µg/mL (WI-38): 79%
viability at 20 µg/mL (MCF7): 82%
inhibition [1]: 16.7%
hemolysis at 2 ug/ml [2]: 100%

COc1cc(/C=C2\CCCC3=C2OC(N)=C(C#N)C3c2ccc(O)c(OC)c2)ccc1O (configuration not stated)
viability at 20 µg/mL (HepG2): 81%
viability at 20 µg/mL (Vero): 82%
viability at 20 µg/mL (WI-38): 84%
viability at 20 µg/mL (MCF7): 79%
inhibition [1]: 57.8%
hemolysis at 2 ug/ml [2]: 100%

COc1ccc(OC)c(/C=C2\CCCC3=C2OC(N)=C(C#N)C3c2cc(OC)ccc2OC)c1 (configuration not stated)
inhibition [1]: 0.38%

COc1ccc(OC)c(/C=C/C(=O)C(C)(C)C(=O)/C=C/c2cc(OC)ccc2OC)c1
viability at 20 µg/mL (HepG2): 84%
viability at 20 µg/mL (Vero): 74%
viability at 20 µg/mL (WI-38): 80%
viability at 20 µg/mL (MCF7): 79%
inhibition [1]: 3.68%
hemolysis at 2 ug/ml [2]: 100%

COc1ccc(/C=C2\CCCC3C2=NN(c2ccc(Br)cc2)C3c2ccc(OC)cc2)cc1 (configuration not stated)
inhibition [1]: 5.03%
hemolysis at 2 ug/ml [2]: 100%

Oc1ccc(/C=C2\CCCC3C2=NNC3c2ccc(O)cc2)cc1 (configuration not stated)
viability at 20 µg/mL (HepG2): 89%
viability at 20 µg/mL (Vero): 76%
viability at 20 µg/mL (WI-38): 88%
viability at 20 µg/mL (MCF7): 75%
inhibition [1]: 54.5%

COc1ccc(OC)c(/C=C2\CCCC/C(=C\c3cc(OC)ccc3OC)C2=O)c1
inhibition [1]: 5.03%
hemolysis at 2 ug/ml [2]: 100%

COc1ccc(/C=C2\CCCC3C2=NN(c2ccc(Br)cc2)C3c2ccc(OC)c(OC)c2)cc1OC (configuration not stated)
inhibition [1]: 0.19%
hemolysis at 2 ug/ml [2]: 100%

COc1ccc(OC)c(/C=C2\CCCCC3C2=NN(c2ccc(Br)cc2)C3c2cc(OC)ccc2OC)c1 (configuration not stated)
hemolysis at 2 ug/ml [2]: 100%

O=C1/C(=C/c2ccc(O)cc2)CCC/C1=C\c1ccc(O)cc1
viability at 20 µg/mL (HepG2): 88%
viability at 20 µg/mL (Vero): 84%
viability at 20 µg/mL (WI-38): 77%
viability at 20 µg/mL (MCF7): 74%
inhibition [1]: 9.49%
hemolysis at 2 ug/ml [2]: 100%

CC(C)(C(=O)/C=C/c1ccc(O)cc1)C(=O)/C=C/c1ccc(O)cc1
viability at 20 µg/mL (HepG2): 57%
viability at 20 µg/mL (Vero): 82%
viability at 20 µg/mL (WI-38): 88%
viability at 20 µg/mL (MCF7): 64%
inhibition [1]: 28.7%
hemolysis at 2 ug/ml [2]: 100%

COc1ccc(OC)c(/C=C2\CCCC3C2=NN(c2ccc(Br)cc2)C3c2cc(OC)ccc2OC)c1 (configuration not stated)
inhibition [1]: 0.77%
hemolysis at 2 ug/ml [2]: 100%

COc1ccc(/C=C2\CCCC/C(=C\c3ccc(OC)c(OC)c3)C2=O)cc1OC
inhibition [1]: 0.77%
hemolysis at 2 ug/ml [2]: 100%

O=c1[nH]cc(F)c(=O)[nH]1 [FLUOROURACIL]
viability at 20 µg/mL (HepG2): 0%
viability at 20 µg/mL (Vero): 0%
viability at 20 µg/mL (WI-38): 0%
viability at 20 µg/mL (MCF7): 0%

COc1ccc(/C=C2\CCC/C(=C\c3ccc(OC)c(OC)c3)C2=O)cc1OC
inhibition [1]: 0%
hemolysis at 2 ug/ml [2]: 100%

COc1ccc(/C=C2\CCCCC3C2=NN(c2ccc(Br)cc2)C3c2ccc(OC)c(OC)c2)cc1OC (configuration not stated)
hemolysis at 2 ug/ml [2]: 100%

COc1ccc(/C=C2\CCCC3=C2OC(N)=C(C#N)C3c2ccc(OC)c(OC)c2)cc1OC (configuration not stated)
viability at 20 µg/mL (HepG2): 19%
viability at 20 µg/mL (Vero): 65%
viability at 20 µg/mL (WI-38): 12%
viability at 20 µg/mL (MCF7): 21%
inhibition [1]: 16.9%
hemolysis at 2 ug/ml [2]: 100%

COc1cc(/C=C2\CCCC3C2=NNC3c2ccc(O)c(OC)c2)ccc1O (configuration not stated)
viability at 20 µg/mL (HepG2): 21%
viability at 20 µg/mL (Vero): 12%
viability at 20 µg/mL (WI-38): 65%
viability at 20 µg/mL (MCF7): 19%
inhibition [1]: 76.7%

COc1ccc(/C=C/C(=O)C(C)(C)C(=O)/C=C/c2ccc(OC)cc2)cc1
inhibition [1]: 7.75%
hemolysis at 2 ug/ml [2]: 100%

COc1ccc(/C=C2\CCCC/C(=C\c3ccc(OC)cc3)C2=O)cc1
inhibition [1]: 1.74%
hemolysis at 2 ug/ml [2]: 100%

COc1ccc(OC)c(/C=C2\CCC/C(=C\c3cc(OC)ccc3OC)C2=O)c1
inhibition [1]: 1.16%
hemolysis at 2 ug/ml [2]: 100%

CC(C)(C(=O)/C=C/c1ccccc1)C(=O)/C=C/c1ccccc1
inhibition [1]: 4.84%
hemolysis at 2 ug/ml [2]: 100%

COc1cc(/C=C/C(=O)CC(=O)/C=C/c2ccc(O)c(OC)c2)ccc1O [CURCUMIN]
viability at 20 µg/mL (HepG2): 18%
viability at 20 µg/mL (Vero): 24%
viability at 20 µg/mL (WI-38): 51%
viability at 20 µg/mL (MCF7): 19%
inhibition [1]: 87.6%

COc1ccc(/C=C2\CCCC3=C2OC(N)=C(C#N)C3c2ccc(OC)cc2)cc1 (configuration not stated)
inhibition [1]: 0.38%

COc1ccc(OC)c(/C=C2\CCCC3C2=NNC3c2cc(OC)ccc2OC)c1 (configuration not stated)
viability at 20 µg/mL (HepG2): 78%
viability at 20 µg/mL (Vero): 67%
viability at 20 µg/mL (WI-38): 100%
viability at 20 µg/mL (MCF7): 82%
inhibition [1]: 25.6%
hemolysis at 2 ug/ml [2]: 100%
